Assays:
Type in all cases: biochemical
[1] = target: T1, cloned human delta opioid receptor (Homo sapiens, UniProt P41143); assay: GTP-γ-S binding assay (SPA), antagonist mode, delta; conditions: functional antagonist potency; membranes with cloned human delta receptor; agonist DPDPE 30 nM; Cheng-Prusoff
T1 construct: expressed in transfected cells
Protocol: (§1) The functional antagonist potency (Kb) of the sample compounds was determined using the GTPγS binding assay. GTPgS—based functional assays provide an in vitro measure of the activity of opioid agonists and antagonists. Opioid reference compounds or test compound are incubated with membrane homogenate from cells expressing the cloned human mu, kappa or delta opioid receptor and radiolabeled [35S]GTPgS. If the compound activates the opioid receptor, an increase in the binding of radiolabeled GTPgS is observed. […] These tests provide an in vitro measurement of the activity of the compound at human opioid receptors.
(§2) An SPA-based GTP-γ-S assay format was developed based on previous opioid (Emmerson et al., J. Pharm Exp Ther 278,1121,1996; Horng et al., Society for Neuroscience Abstracts, 434.6, 2000) and muscarinic (DeLapp et al., JPET 289, 946, 1999) assay formats. Membranes were resuspended in 20 mM HEPES, 100 mM NaCl, 5 mM MgCl2, 1 mM DTT, and 1 mM EDTA. Fifty (50) […] of GTP-γ-[35S], compound, membrane suspension (20 microgram/well), and wheat germ agglutinin coated SPA beads (1 mg/well) were added to clear bottom 96 well assay plates. GDP ([…]) was added to the membrane solution prior to addition to the assay plates. Plates were sealed and incubated for four hours at room temperature then placed in a refrigerator overnight to allow the beads to settle. Signal stability at 4° C. was determined to be >60 hours. Plates were warmed to room temperature and counted in a Wallac Microbeta scintillation counter. For antagonist assays, specific agonists were added at the following concentrations: (MOR) DAMGO 1 micromolar, (DOR) DPDPE 30 nM, (KOR) U69593 300 nM. Kb's were determined by Cheng-Prusoff equation (see Cheng and Prusoff, Biochem. Pharmacol. 22, 3099, 1973).

[2] = target: T2, cloned human kappa opioid receptor (Homo sapiens, UniProt P41145); assay: GTP-γ-S binding assay (SPA), antagonist mode, kappa; conditions: functional antagonist potency; membranes with cloned human kappa receptor; agonist U69593 300 nM; Cheng-Prusoff
T2 construct: expressed in transfected cells
T2 sequence (P41145 whole entry): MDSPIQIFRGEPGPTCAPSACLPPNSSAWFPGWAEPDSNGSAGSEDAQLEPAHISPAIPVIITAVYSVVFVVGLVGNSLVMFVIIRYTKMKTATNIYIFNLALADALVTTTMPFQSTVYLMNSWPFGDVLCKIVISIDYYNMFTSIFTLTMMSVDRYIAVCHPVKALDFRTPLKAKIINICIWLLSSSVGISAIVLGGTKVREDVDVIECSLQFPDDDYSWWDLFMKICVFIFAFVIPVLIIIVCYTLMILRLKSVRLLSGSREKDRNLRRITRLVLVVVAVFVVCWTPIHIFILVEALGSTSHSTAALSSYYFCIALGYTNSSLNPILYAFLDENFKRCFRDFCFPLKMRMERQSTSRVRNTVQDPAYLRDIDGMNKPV
Protocol: as §1, §2

[3] = target: T3, cloned human mu opioid receptor (Homo sapiens, UniProt P35372); assay: GTP-γ-S binding assay (SPA), antagonist mode, mu; conditions: functional antagonist potency; membranes with cloned human mu receptor; agonist DAMGO 1 micromolar; Cheng-Prusoff
T3 construct: expressed in transfected cells
T3 sequence (P35372 whole entry): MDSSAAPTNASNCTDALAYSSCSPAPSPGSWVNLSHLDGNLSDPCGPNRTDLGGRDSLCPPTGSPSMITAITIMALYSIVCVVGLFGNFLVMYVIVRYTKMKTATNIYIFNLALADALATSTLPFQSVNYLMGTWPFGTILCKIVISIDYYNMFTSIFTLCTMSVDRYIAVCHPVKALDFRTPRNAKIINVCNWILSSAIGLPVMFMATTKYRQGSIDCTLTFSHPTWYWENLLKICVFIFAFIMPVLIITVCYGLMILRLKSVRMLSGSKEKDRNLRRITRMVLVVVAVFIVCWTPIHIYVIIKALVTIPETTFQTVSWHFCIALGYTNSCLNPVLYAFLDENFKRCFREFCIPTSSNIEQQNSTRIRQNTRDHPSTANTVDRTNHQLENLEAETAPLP
Protocol: as §1, §2

T1 sequence (P41143 whole entry): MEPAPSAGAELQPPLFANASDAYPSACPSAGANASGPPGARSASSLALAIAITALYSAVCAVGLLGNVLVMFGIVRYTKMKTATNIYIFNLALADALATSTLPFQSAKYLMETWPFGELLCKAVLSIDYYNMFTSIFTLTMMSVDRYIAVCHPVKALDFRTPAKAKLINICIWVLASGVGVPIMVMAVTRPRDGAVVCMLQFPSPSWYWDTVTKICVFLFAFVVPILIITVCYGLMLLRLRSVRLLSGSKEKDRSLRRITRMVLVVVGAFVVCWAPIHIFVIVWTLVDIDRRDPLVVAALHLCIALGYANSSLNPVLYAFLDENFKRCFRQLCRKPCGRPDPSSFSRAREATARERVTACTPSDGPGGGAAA

Compound	Kb [1] [nM]	Kb [2] [nM]	Kb [3] [nM]
CC(C)CCNCc1ccc2c(c1)CCc1cc(C(N)=O)ccc1O2 [Example 1, 8-[(3-Methyl-butylamino)-methyl]-10,11-dihydro-dibenzo[b,f]oxepine-2-carboxilic acid amide]	11	6.1	1.2
CC(C)CNCc1ccc2c(c1)CCc1cc(C(N)=O)ccc1O2 [Example 2, 8-(Isobutylamino-methyl)-10,11-dihydro-dibenzo[b,f]oxepine-2-carboxylic acid amide]		29.8	12
CC(C)CCCNCc1ccc2c(c1)CCc1cc(C(N)=O)ccc1O2 [Example 3, 8-[(4-Methyl-pentylamino)-methyl]-10,11-dihydro-dibenzo[b,f]oxepine-2-carboxylic acid amide]	7.4	6.5	0.8
NC(=O)c1ccc2c(c1)CCc1cc(CNCCc3cccs3)ccc1O2 [Example 4, 8-[(2-Thiophen-2-yl-ethylamino)-methyl]-10,11-dihydro-dibenzo[b,f]oxepine-2-carboxylic acid amide]	7.1	12.6	0.9
CCCCCNCc1ccc2c(c1)CCc1cc(C(N)=O)ccc1O2 [Example 5, 8-Pentylaminomethyl-10,11-dihydro-dibenzo[b,f]oxepine-2-carboxylic acid amide]		4.9	1.7
CCCCCCNCc1ccc2c(c1)CCc1cc(C(N)=O)ccc1O2 [Example 6, 8-Hexylaminomethyl-10,11-dihydro-dibenzo[b,f]oxepine-2-carboxylic acid amide]	10.3	4.4	0.7
NC(=O)c1ccc2c(c1)CCc1cc(CNCCC3CCOCC3)ccc1O2 [Example 12, 8-{[2-(Tetrahydro-pyran-4-yl)-ethylamino]-methyl}-10,11-dihydro-dibenzo[b,f]oxepine-2-carboxylic acid amide]	2.1	2.2	0.7
CC(C)(C)CCNCc1ccc2c(c1)CCc1cc(C(N)=O)ccc1O2 [Example 13, 8-[(3,3-Dimethyl-butylamino)-methyl]-10,11-dihydro-dibenzo[b,f]oxepine-2-carboxylic acid amide]	14.4	12.1	4
NC(=O)c1ccc2c(c1)CCc1cc(CNCCC3CCCC3)ccc1O2 [Example 14, 8-[(2-Cyclopentyl-ethylamino)-methyl]-10,11-dihydro-dibenzo[b,f]oxepine-2-carboxylic acid amide]	7	8.6	0.6
CCOCCCNCc1ccc2c(c1)CCc1cc(C(N)=O)ccc1O2 [Example 17, 8-[(3-Ethoxy-propylamino)-methyl]-10,11-dihydro-dibenzo[b,f]oxepine-2-carboxylic acid amide]	26.7	25.7	2.1

Reference: patent publication US7288543B2, “Opioid receptor antagonists” (Eli Lilly and Company, priority 2004, dated 2007)
